# Results: patent US12115151B2, “Method of treatment of p53 WT tumors” (Dana-Farber Cancer Institute, Inc., priority 2018, dated 2024)
# Values joined by “and” are separate entries in the source; they are usually repeats but may differ in a detail not shown here. Equal values may be shown once. “Also recorded” adds a separate entry of the source.
# Key:
# MS-1 cells = test: XTT viability assay, MS-1 cells; type: cell-based; conditions: MS-1 (p53 mutant); 96 hours
# Protocol: (§1) Cell viability assays were performed using Cell Proliferation Kit II (XTT) (Roche) according to the manufacturer's instructions and BH3 profiling was described in Pallis et al. (36). Synergy testing was performed using Compusyn and Synergyfinder (28, 29).
# MKL-1 MCC cells = test: XTT cell viability assay and synergy testing, MKL-1 cells; type: cell-based; conditions: 96 hours; for Response: relative viability vs untreated; for Response-rep1 / Response-rep2: HDM201 0 nM; for relative viability (XTT), untreated = 1: combinations with a fixed amount of Lenalidomide (5 uM), replicate columns
# Protocol: as §1
# The XTT assay was performed to determine the relative viability (% response) normalized to untreated cells.
# p53 [1] = test: Western blot of p53 response in IMR90-p53DD cells; type: cell-based, human; conditions: IMR90 cells expressing p53DD, Nutlin-3 1 μM, 24 hours
# Protocol: (§3) Confluent cultures of cells were washed with ice-cold phosphate-buffered saline (PBS) and resuspended in EBC lysis buffer (50 mM Tris, pH 8.0, 150 mM NaCl, 0.5% NP-40, 1:10,000-mercaptoethanol, 0.5 mM EDTA) for 10 min on ice and then centrifuged. Clarified lysates were incubated overnight with antibodies and magnetic protein A/G beads (PureProteome magnetic beads, EMD Millipore). […] Quantitative western blotting was performed using the Odyssey near-infrared system (Li-Cor Biotechnology).
# p53 [2] = test: Western blot of p53 activation in MKL-1 cells; type: cell-based; conditions: 24-40 hours
# Protocol: (§2) Confluent cultures of cells were washed with ice-cold phosphate-buffered saline (PBS) and resuspended in EBC lysis buffer (50 mM Tris, pH 8.0, 150 mM NaCl, 0.5% NP-40, 1:10,000-mercaptoethanol, 0.5 mM EDTA) for 10 min on ice and then centrifuged. Clarified lysates were incubated overnight with antibodies and magnetic protein A/G beads (PureProteome magnetic beads, EMD Millipore). […] Mouse monoclonal antibodies Ab3 and Ab5 against MCV T antigens were generated against MCV large T antigen residues 1 to 260 and produced as a glutathione S-transferase (GST) fusion protein in bacteria (17). Quantitative western blotting was performed using the Odyssey near-infrared system (Li-Cor Biotechnology).
# MKL-1 MCC xenografts = test: Xenograft efficacy study; conditions: individual animals, oral daily, HDM201 40 mg/kg and/or lenalidomide 50 mg/kg; for Tumor Volume Change, Abs Ch = T − T0: tumor volumes in mm3
# Source text: The study was terminated when the tumor volume reached the maximum permissible size of 2000 mm3.
# CK1α [3] = target: T1, CK1α (Homo sapiens, UniProt P48729); test: Western blot of CK1α protein levels in MKL-1 cells; type: cell-based; conditions: IMiD 10 μM
# T1 sequence (P48729 whole entry): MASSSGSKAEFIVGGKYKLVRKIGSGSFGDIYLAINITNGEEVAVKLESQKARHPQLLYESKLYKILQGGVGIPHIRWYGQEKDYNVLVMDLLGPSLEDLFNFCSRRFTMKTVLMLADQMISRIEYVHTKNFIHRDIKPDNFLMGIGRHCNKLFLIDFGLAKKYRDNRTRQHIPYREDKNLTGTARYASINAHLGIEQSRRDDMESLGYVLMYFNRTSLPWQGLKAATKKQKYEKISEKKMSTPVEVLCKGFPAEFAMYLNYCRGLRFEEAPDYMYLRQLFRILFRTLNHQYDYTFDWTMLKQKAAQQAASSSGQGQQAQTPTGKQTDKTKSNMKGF
# Protocol: as §3
# CK1α [4] = target: T1, CK1α; test: Western blot of CK1α in UISO cells; type: cell-based; conditions: lenalidomide 10 μM, 24 hours
# Source text: Of note, UISO has less MDM2 and MDM4 proteins than MKL-1.
# MDM4 binding to p53 = test: Immunoprecipitation of MDM4, p53 and CK1α from MKL-1 lysates; type: cell-based; conditions: MKL-1 cells; nutlin-3 5 μM, lenalidomide 10 μM, 40 hours
# Protocol: as §2
smiles,measurement,setting,value
COc1ccc(C2=N[C@@H](c3ccc(Cl)cc3)[C@@H](c3ccc(Cl)cc3)N2C(=O)N2CCNC(=O)C2)c(OC(C)C)c1 [Nutlin-3],sensitivity of MS-1 cells to MDM2 inhibitor (XTT viability),MS-1 cells,not MS-1 cells were sensitive
same,sensitivity of MKL-1 cells to MDM2 inhibitor (XTT viability),MKL-1 MCC cells; MKL-1 (p53 wild type),sensitive
same,Response,MKL-1 MCC cells; Nutlin-3 1250 nM alone,96.8309% and 82.16%
same,Response,MKL-1 MCC cells; Nutlin-3 2500 nM alone,65.56% and 72.5696%
same,Response,MKL-1 MCC cells; Nutlin-3 3750 nM alone,44.2% and 63.6648%
same,Response,MKL-1 MCC cells; Nutlin-3 4500 nM alone,41.19% and 56.8421%
same,p53 response,p53 [1],does not elicit p53 response
same,p53 response,p53 [1]; listed as nutlin-3,"did not increase p53, p-p53 and PUMA levels"
"Nc1cccc2c1CN(C1CCC(=O)NC1=O)C2=O (racemic) [Lenalidomide, (RS)-3-(7-Amino-3-oxo-1H-isoindol-2-yl)piperidin-2,6-dion]","p53 activation (p53, P-p53, Ac-p53, p21, PUMA levels)",p53 [2],modest positive effect on p53 levels
same,"Tumor Volume Change, % Ch = (T − T0)/T0",MKL-1 MCC xenografts; day 0,0.00%
same,"Tumor Volume Change, Abs Ch = T − T0",MKL-1 MCC xenografts; day 0,0.00
same,"Tumor Volume Change, % Ch = (T − T0)/T0",MKL-1 MCC xenografts; day 4,74.88% and 101.33% and 102.10% and 99.96% and 150.37% and 52.58% and 63.66% and 71.12%
same,"Tumor Volume Change, Abs Ch = T − T0",MKL-1 MCC xenografts; day 4,144.53 and 151.67 and 182.72 and 171.42 and 196.53 and 107.98 and 82.85 and 113.80
same,"Tumor Volume Change, % Ch = (T − T0)/T0",MKL-1 MCC xenografts; day 7,172.14% and 170.30% and 232.85% and 199.00% and 277.21% and 108.30% and 219.88% and 209.85%
same,"Tumor Volume Change, Abs Ch = T − T0",MKL-1 MCC xenografts; day 7,332.29 and 254.90 and 416.69 and 341.29 and 362.30 and 222.38 and 286.16 and 335.77
same,"Tumor Volume Change, % Ch = (T − T0)/T0",MKL-1 MCC xenografts; day 11,532.35% and 513.08% and 584.49% and 475.00% and 680.10% and 321.83% and 431.10% and 501.46%
same,"Tumor Volume Change, Abs Ch = T − T0",MKL-1 MCC xenografts; day 11,1027.58 and 768.00 and 1045.97 and 814.62 and 888.86 and 660.89 and 561.06 and 802.36
same,"Tumor Volume Change, % Ch = (T − T0)/T0",MKL-1 MCC xenografts; day 14,811.07% and 861.89% and 936.62% and 702.42% and 1182.50% and 538.29% and 804.69% and 779.36%
same,"Tumor Volume Change, Abs Ch = T − T0",MKL-1 MCC xenografts; day 14,1565.59 and 1290.11 and 1676.13 and 1204.65 and 1545.48 and 1105.37 and 1047.26 and 1246.99
same,"Tumor Volume Change, % Ch = (T − T0)/T0",MKL-1 MCC xenografts; day 18,1406.04% and 1123.01% and 1595.67% and 1146.29% and 1544.08% and 774.41% and 1719.65% and 1318.82%
same,"Tumor Volume Change, Abs Ch = T − T0",MKL-1 MCC xenografts; day 18,2714.05 and 1680.96 and 2855.54 and 1965.88 and 2018.05 and 1590.25 and 2238.02 and 2110.15
same,Response-rep1,MKL-1 MCC cells; Lenalidomide 5000 nM,98.9539%
same,Response-rep2,MKL-1 MCC cells; Lenalidomide 5000 nM,97.73%
same,Response-rep1,MKL-1 MCC cells; Lenalidomide 10000 nM,83.3296%
same,Response-rep2,MKL-1 MCC cells; Lenalidomide 10000 nM,76.26%
same,Response-rep1,MKL-1 MCC cells; Lenalidomide 15000 nM,69.78%
same,Response-rep2,MKL-1 MCC cells; Lenalidomide 15000 nM,67.82%
same,Response-rep1,MKL-1 MCC cells; Lenalidomide 18000 nM,25.1812%
same,Response-rep2,MKL-1 MCC cells; Lenalidomide 18000 nM,49.26%
same,"relative viability (XTT), untreated = 1",MKL-1 MCC cells; Nutlin-3 or RG7388 level 25 (unit not given),1.143 and 0.8845 and 1.022
same,"relative viability (XTT), untreated = 1",MKL-1 MCC cells; Nutlin-3 or RG7388 level 50 (unit not given),1.089 and 0.9384 and 1.081
same,"relative viability (XTT), untreated = 1",MKL-1 MCC cells; Nutlin-3 or RG7388 level 75 (unit not given),1.027 and 1.061 and 1.086
same,"relative viability (XTT), untreated = 1",MKL-1 MCC cells; Nutlin-3 or RG7388 level 90 (unit not given),1.011 and 0.945 and 0.9521
same,Response,MKL-1 MCC cells; Lenalidomide 5000 nM alone,104.85%
same,Response,MKL-1 MCC cells; Lenalidomide 10000 nM alone,105.06%
same,Response,MKL-1 MCC cells; Lenalidomide 15000 nM alone,107.06%
same,Response,MKL-1 MCC cells; Lenalidomide 18000 nM alone,100.64%
same,CK1α protein levels,CK1α [3],reduces CK1α protein rapidly; also recorded: decreases CK1α protein levels
same,CK1α protein levels,CK1α [3]; listed as lenalidomide,levels rapidly decreased
same,CK1α levels,CK1α [4],depletes CK1α
same,CK1α levels,CK1α [4]; listed as lenalidomide,decreased the CK1α levels
same,MDM4 binding to p53 (co-immunoprecipitation),MDM4 binding to p53,reduces MDM4 binding to p53
